Where “and” joins values, the source holds several entries; their conditions need not be identical. Equal entries are not always repeated.
What was measured:
[1] = biological target: Nurr1:RXR heterodimer (Homo sapiens, UniProt P19793+P43354); assay: Nurr1 LBD:RXRα LBD heterodimerization assay (HTRF); type: biochemical; conditions: 30 μM, Tb3+-cryptate Nurr1 LBD and sGFP-RXRα LBD
Method: To determine the molecular response of the Nurr1:RXR heterodimer on dual agonist binding, we employed homogenous time-resolved fluorescence resonance energy transfer (HTRF) based assays with labeled Nurr1 and RXR LBD proteins. Tb^3+-cryptate as streptavidin conjugate served as FRET donor and was coupled to biotinylated proteins. sGFP fusion proteins of the receptors of interest were used as FRET acceptors. Ligand effects on dimer formation were determined by titrating the sGFP-labeled dimer partner with a fixed concentration of the Tb^3+-labeled counterpart. […] The same effect was also observable for the natural product 1 (Figure S3).
Nurr1 dimerization assays (HTRF). Modulation of Nurr1 LBD homodimerization and heterodimerization of the LDBs of Nurr1 and RXRα was investigated by HTRF as reported previously4. Nurr1 LBD or RXRα LBD proteins labeled with sGFP were titrated against a fixed concentration of Tb3+-cryptate as streptavidin conjugate (Tb-SA) (610SATLF, Revvity) coupled to biotinylated Nurr1 LBD protein in the presence of test compounds at 30 µM or absence of compound as a negative control (apo). Assay solutions were prepared in buffer containing 25 mM HEPES pH 7.5, 150 mM KF, 5% (m/v) glycerol, 5 mM DTT, 0.1% (m/v) CHAPS and 1%
DMSO. The FRET donor complex was formed from biotinylated Nurr1 LBD (final concentration 0.188 nM) and Tb-SA (0.375 nM) and was kept constant. For the homodimerization assay, the FRET acceptor consisted of sGFP-Nurr1 LBD, which was titrated from 0.5 µM, while free sGFP was added to keep the total GFP content stable at 0.5 µM. […] Samples were equilibrated at room temperature for 2 h and fluorescence intensities (FI) after excitation at 340 nm were recorded at 520 nm for sGFP acceptor fluorescence and at 620 for Tb-SA donor fluorescence on a SPARK plate reader (Tecan Group Ltd.). […]
Evaluation of Nurr1-regulated gene expression. […] RNA concentration and purity were assessed using a NanoDrop One UV-vis spectrophotometer (Thermo Fisher Scientific) at 260/280 nm. […]

[2] = biological target: T1, Nurr1 (Homo sapiens, UniProt P43354); assay: Gal4-hybrid reporter gene assay, Nurr1; type: cell-based; conditions: Gal4-hybrid reporter gene assay; for max. act. (Nurr1): max. fold activation; for EC50: mean±S.E.M., n≥3
T1 construct: pFA-CMV-hNurr1-LBD; expressed in transfected cells; host or cells: HEK293T
Method: (§1) modified Eagle’s medium (DMEM), high glucose supplemented with 10% fetal calf serum (FCS), sodium pyruvate (1 mM), penicillin (100 U/mL), and streptomycin (100 μg/mL) at 37 °C and 5% CO2 and seeded in 96-well plates (3×10^4 cells/well). After 24 h, the medium was changed to Opti-MEM without supplements, and the cells were transiently transfected using Lipofectamine LTX reagent (Invitrogen) according to the manufacturer’s protocol. Five hours after transfection, the cells were incubated with the test compounds in Opti-MEM supplemented with penicillin (100 U/mL), streptomycin (100 μg/mL), and 0.1% DMSO for 15 h before luciferase activity was measured using the Dual -Glo Luciferase Assay System (Promega) according to the manufacturer’s protocol on a Tecan Spark l uminometer (Tecan Deutschland GmbH, Germany). Firefly luminescence was divided by Renilla luminescence and multiplied by 1000, resulting in relative light units (RLU) to normalize for transfection efficiency and cell growth. Fold activation was obtained by dividing the mean RLU of a sample by the mean RLU of the untreated control. All samples were tested in at least three biologically independent experiments in duplicates. For dose –response curve fitting and calculation of EC50 values, the equation “[Agonist] vs. response – Variable slope (four parameters)” was used in GraphPad Prism (version 5.04, GraphPad Software, La Jolla, CA, USA). […] (10 μM, NR4A) and bexarotene (1 µM, NR2B) served as the positive control. […]
(§2) 150 μM in the same buffer containing 2-4% DMSO) in 21–26 injections (1 × 1 μL and 20 × 4 to 25 × 4 μL) with an injection interval of 120 s. As control experiments, the test compounds were titrated to the buffer, and the buffer was titrated to the protein under otherwise identical conditions. The heat rates of the compound-Nurr1 LBD titrations were analyzed using NanoAnalyze software (TA Instruments, New Castle, DE) with an independent binding model.

[3] = biological target: T2, RXRγ (Homo sapiens, UniProt P48443); assay: Gal4-hybrid reporter gene assay, RXRγ; type: cell-based; conditions: Gal4-hybrid reporter gene assay; for EC50: mean±S.E.M., n≥3
T2 construct: pFA-CMV-hRXRγ-LBD; expressed in transfected cells; host or cells: HEK293T
T2 sequence (P48443 231-459 limits assumed): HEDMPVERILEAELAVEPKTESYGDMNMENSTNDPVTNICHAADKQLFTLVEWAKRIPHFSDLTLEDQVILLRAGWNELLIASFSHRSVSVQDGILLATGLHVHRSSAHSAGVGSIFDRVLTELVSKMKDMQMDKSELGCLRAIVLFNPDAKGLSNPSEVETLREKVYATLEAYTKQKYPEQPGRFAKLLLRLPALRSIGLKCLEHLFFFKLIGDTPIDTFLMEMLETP
Method: as §1, §2

T1 sequence (P43354 360-595 limits assumed): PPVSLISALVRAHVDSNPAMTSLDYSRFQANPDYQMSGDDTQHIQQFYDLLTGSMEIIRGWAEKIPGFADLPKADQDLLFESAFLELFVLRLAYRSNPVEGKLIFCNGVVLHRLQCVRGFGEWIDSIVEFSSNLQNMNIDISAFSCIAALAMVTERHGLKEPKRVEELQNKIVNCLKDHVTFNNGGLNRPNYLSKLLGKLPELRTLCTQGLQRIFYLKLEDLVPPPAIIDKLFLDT
Chain of Nurr1:RXR heterodimer (P43354 360-595 limits assumed): as above
Chain of Nurr1:RXR heterodimer (P19793 227-458 limits assumed): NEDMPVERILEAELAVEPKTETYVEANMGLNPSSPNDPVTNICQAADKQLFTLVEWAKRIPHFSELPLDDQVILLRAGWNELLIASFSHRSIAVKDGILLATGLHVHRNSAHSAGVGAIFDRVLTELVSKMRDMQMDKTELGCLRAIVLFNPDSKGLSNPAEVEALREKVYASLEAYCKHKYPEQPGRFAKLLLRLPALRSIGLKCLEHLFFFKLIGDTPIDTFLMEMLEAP

| SMILES | Nurr1:RXR heterodimer formation [1] | max. act. (Nurr1) [2] | EC50 [2] | max. act. (RXR) γ [3] | EC50 [3] |
| --- | --- | --- | --- | --- | --- |
| Cc1c2c(n(-c3ccc(CC(=O)O)cc3)c1C)CCC(F)(F)C2 [compound 2] | left the dimer intact | 3.3 fold and 3.3±0.1 fold | 2600 ± 400 nM | 44±1 fold | 3400 nM |
| Cc1c(C)n(-c2ccc(CC(=O)O)cc2)c2ccc(F)cc12 [compound 3] | left the dimer intact | 4.3±0.5 fold | 2200 ± 900 nM | 67±4 fold | 1700 nM |
